Measured values reported in patent publication US20140179624A1, “CYTOPROTECTIVE DERIVATIVES OF AVICIN D AND METHODS OF MAKING AND USING THEREOF” (Research Development Foundation, priority 2012, published 2014).

Legend:
[1] = tested on: IL-6; experiment: Expression of constitutive and TNF-induced IL-6 (FIG. 2B); format: cell-based
[2] = tested on: human preadipocytes; experiment: Differentiation of human preadipocytes to mature adipocytes; format: cell-based
[3] = tested on: NF-κB; experiment: Inhibition of NF-κB activation (FIG. 2A); format: cell-based; settings: compared with dexamethasone
[4] = tested on: cell cytotoxicity; settings: screen of Acacia victoriae compounds; U.S. Pat. No. 6,444,233; cited from earlier work
[5] = tested on: 3T3-L1 cells; experiment: Adipogenesis in 3T3-L1 cells; format: cell-based
[6] = biological target: T1, glucocorticoid receptor (GR) (Homo sapiens, UniProt P04150); experiment: Phosphorylation of GR Ser-211 (FIG. 4); format: cell-based; settings: even after 16 hours
T1 sequence (P04150 1-777): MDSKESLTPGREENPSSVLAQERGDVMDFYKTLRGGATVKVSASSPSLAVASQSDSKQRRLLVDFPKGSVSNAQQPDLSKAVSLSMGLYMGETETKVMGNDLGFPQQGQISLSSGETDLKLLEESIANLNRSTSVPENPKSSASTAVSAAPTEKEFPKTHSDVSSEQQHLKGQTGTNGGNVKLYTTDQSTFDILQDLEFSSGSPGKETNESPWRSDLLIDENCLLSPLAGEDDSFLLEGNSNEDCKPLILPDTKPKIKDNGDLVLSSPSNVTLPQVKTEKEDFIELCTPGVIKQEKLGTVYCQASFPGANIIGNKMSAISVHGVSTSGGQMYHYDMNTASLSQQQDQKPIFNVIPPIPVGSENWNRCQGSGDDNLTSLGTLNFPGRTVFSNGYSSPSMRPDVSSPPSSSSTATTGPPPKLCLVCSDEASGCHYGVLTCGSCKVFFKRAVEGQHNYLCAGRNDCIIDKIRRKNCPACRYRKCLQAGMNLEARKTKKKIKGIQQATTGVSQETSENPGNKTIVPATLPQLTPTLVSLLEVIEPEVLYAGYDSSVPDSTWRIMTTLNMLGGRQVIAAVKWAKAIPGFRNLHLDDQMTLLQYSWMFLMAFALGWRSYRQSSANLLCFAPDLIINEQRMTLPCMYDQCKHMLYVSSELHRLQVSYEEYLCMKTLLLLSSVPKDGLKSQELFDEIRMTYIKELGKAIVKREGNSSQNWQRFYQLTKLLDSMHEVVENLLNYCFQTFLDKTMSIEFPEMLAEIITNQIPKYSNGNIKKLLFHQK

[7] = tested on: NF-κB; settings: redox-dependant manner; cited from earlier work
[8] = tested on: chemotaxis; experiment: Inhibition of chemotaxis; format: cell-based; settings: preliminary data
From the text: The compositions described herein contain an effective amount of the one or more avicin derivatives. The amount to be administered can be readily determined by the attending physician based on a variety of factors including, but not limited to, age of the patient, weight of the patient, disease or disorder to be treated, presence of a pre-existing condition, and dosage form to be administered (e.g., immediate release versus modified release dosage form). Typically, the effective amount is from about 0.1 mg/kg/day to about 100 mg/kg/day, more preferably from 0.1 mg/kg/day to 50 mg/kg/day, more preferably from 0.1 mg/kg/day to 25 mg/kg/day, and most preferably from 0.1 mg/kg/day to 10 mg/kg/day. Dosages greater or less than this may be administered depending on the diseases or disorder to be treated.

[9] = tested on: NF-κB; experiment: TNF-induced p(IL6-κB)350hu.IL6P-Luc luciferase reporter in HEK 293T cells with and without GR (FIG. 3); format: cell-based
From the text: FIG. 3 is graph showing the expression of glucocorticoid receptor (GR) in HEK293T cells with and without GR.
However, TNF-induced activation of p(IL6-κB)350hu.IL6P-Luc was inhibited by both avicin D and Dex in HEK 293T cells transfected with GR (FIG. 3). […] This observation supports the notion that avicins are not able to induce GR transactivation.

[10] = tested on: NF-E2-related factor 2 (Nrf2); settings: redox-dependant manner; cited from earlier work

Compound | expression of constitutive and TNF-induced IL-6 [1] | differentiation of human preadipocytes to mature adipocytes [2] | intracellular triglyceride levels [2] | activation of NF-κB [3] | induction of cell cytotoxicity [4] | PKA-mediated CREB activity [5] | adipolysis and adipocyte apoptosis [5] | preadipocyte differentiation [5] | adipogenesis ([5]; 3T3-L1 cells) | intracellular triglyceride level ([5]; 3T3-L1 cells) | expression and secretion of adiponectin ([5]; in adipocytes) | phosphorylation of Ser-211 [6] | NF-κB inhibition [7] | inhibition of chemotaxis [8] | TNF-induced activation of p(IL6-κB)350hu.IL6P-Luc ([9]; HEK 293T cells transfected with GR) | luciferase activity ([9]; wild type HEK 293T cells (without GR)) | Nrf2 activation [10]
C=C[C@](C)(O)CC/C=C(\CO)C(=O)O[C@H]1[C@H](O)[C@@H](O)[C@H](O[C@@](C)(C=C)CC/C=C(\CO)C(=O)O[C@H]2C[C@]3(C(=O)O[C@@H]4O[C@H](CO)[C@@H](O)[C@H](O)[C@H]4O[C@@H]4O[C@@H](C)[C@H](O[C@@H]5O[C@@H](CO)[C@H](O)[C@H]5O)[C@@H](O[C@@H]5O[C@H](CO)[C@@H](O)[C@H](O)[C@H]5O)[C@H]4O)[C@H](O)C[C@]4(C)C(=CC[C@@H]5[C@@]6(C)CC[C@H](O[C@@H]7O[C@H](CO[C@@H]8O[C@H](C)[C@H](O)[C@H](O)[C@H]8O[C@@H]8OC[C@@H](O)[C@H](O)[C@H]8O)[C@@H](O)[C@H](O)[C@H]7NC(C)=O)C(C)(C)[C@@H]6CC[C@]54C)[C@@H]3CC2(C)C)O[C@@H]1C [Avicin D] | suppresses the expression of both constituitive and TNF-induced IL-6 | inhibited the differentiation of human preadipocytes to mature adipocytes | reduced intracellular triglyceride levels | inhibits activation of NF-κB in a similar manner to dexamethasone | significant activity | inhibited PKA-mediated CREB activity | did not affect | suppressed preadipocyte differentiation | inhibit adipogenesis | reduce intracellular triglyceride level in a dose-dependent manner | increased the expression and secretion of adiponectin | does not enhance phosphorylation of Ser-211 | inhibit NF-κB | effective at inhibiting chemotaxis at picomolar and nanomolar concentrations | inhibited | neither avicin D nor dexamethasone had an effect | activate NF-E2-related factor 2 (Nrf2)
C=C[C@](C)(O)CC/C=C(\C)C(=O)O[C@H]1[C@H](O)[C@@H](O)[C@H](O[C@@](C)(C=C)CC/C=C(\CO)C(=O)O[C@H]2C[C@]3(C(=O)O[C@@H]4O[C@H](CO)[C@@H](O)[C@H](O)[C@H]4O[C@@H]4O[C@@H](C)[C@H](O[C@@H]5O[C@@H](CO)[C@H](O)[C@H]5O)[C@@H](O[C@@H]5O[C@H](CO)[C@@H](O)[C@H](O)[C@H]5O)[C@H]4O)[C@H](O)C[C@]4(C)C(=CC[C@@H]5[C@@]6(C)CC[C@H](O[C@@H]7O[C@H](CO[C@@H]8O[C@H](C)[C@H](O)[C@H](O)[C@H]8O[C@@H]8OC[C@@H](O)[C@H](O)[C@H]8O)[C@@H](O)[C@H](O)[C@H]7NC(C)=O)C(C)(C)[C@@H]6CC[C@]54C)[C@@H]3CC2(C)C)O[C@@H]1C [avicin G] | – | – | – | – | significant activity | – | – | – | – | – | – | – | – | – | – | – | –
